Data reported in US7479277B2, “Method for reducing intraocular pressure using integrin-linked kinase inhibitor” (Wisconsin Alumni Research Foundation, priority 2005, dated 2009).

System: cultured human trabecular meshwork (HTM) cells
Experiment: HTM cell spreading on fibronectin III7-10 coated coverslips, immunofluorescence microscopy
Assay type: cell-based
Experimental: A cultured human trabecular meshwork (HTM) diploid cell strain obtained from trabecular meshwork explants was serum-starved for twenty-four hours and then plated on 12 mm round glass coverslips (Bellco Glass, Inc.; Vineland, N.J.) coated with III7-10 domains of fibronectin (RGD cell-binding domain; 236 nM) for three hours at 37° C., 95% humidity, 5% CO2, ambient air. The cells were exposed to either DMSO (control) or an ILK inhibitor with or without 472 nM of the Hep II domain. Following incubation, cells were fixed for immunofluorescence microscopy by methods known to a skilled artisan.
HTM cells were examined by immunofluorescence microscopy using anti-vinculin (1:3000; Sigma-Aldrich; St. Louis, Mo.), anti-ILK (1:1000; Upstate Group, LLC; Charlottesville, Va.), anti-talin (1:1000; Chemicon; Temecula, Calif.), anti-paxillin (1:1000; BD Biosciences; San Jose, Calif.) or anti-FAK (1:1000; BD Biosciences) antibodies to reveal actin stress fibers and focal adhesions. […] Cell images were acquired with a Zeiss AxioCam HRm camera mounted on a Zeiss Axiophan 2 Imaging fluorescence microscope together with AxioVision v.3.1 software. The percentage of spread cells was determined by counting polygonal cells containing stress fibers (spread cells) versus rounded cells lacking stress fibers (non-spread cells) from eight to twelve fields.

SMILES: O=c1cc(N2CCOCC2)oc2c(-c3ccccc3)cccc12 [LY29400]
- percentage of spread cells (LY29400 25 μM added to ILK inhibitor plus soluble Hep II domain 472 nM, p<0.008): 28%
- percentage of spread cells (administered alone, compared to control cells, p<0.2): 35%
